# Source: patent US11584732B2, “Methods of treatment using 4-(3-cyanophenyl)-6-pyridinylpyrimidine mGlu5 modulators” (Heptares Therapeutics Limited, priority 2013, dated 2023)
# System: CD-1 mice
# Test: In vivo efficacy test - marble burying
# Set-up: species or system mouse
# Details: male CD-1 mice, po, 30 min prior to test; at a dose of 10 and 30 mg/kg versus vehicle group
structure (smiles),measurement,value
"N#Cc1cc(Cl)cc(-c2cc(-c3ccc(F)cn3)ncn2)c1 [Example 17, 3-chloro-5-[6-(5-fluoropyridin-2-yl)pyrimidin-4-yl]benzonitrile]",number of marbles buried,statistically significant decrease
